Source: article PMC9936582, “Sulfamate Acetamides as Self-Immolative Electrophiles for Covalent Ligand-Directed Release Chemistry” (Journal of the American Chemical Society, 2023)
“Also recorded” adds a separate entry of the source. Values belong to the compound of their own block, whether it stands above or below them.

Experiments:
[1] = Metabolic stability of sulfopin analogues in liver microsomes; assay type: in vitro ADME
Experimental: Next, we examined the buffer stability of the sulfopin sulfamate acetamides in PBS buffer (pH 8; 37 °C). Similar to the model compounds, the chloroacetamide (sulfopin) and sulfonate (4a) warheads show 30 and 15% hydrolysis after 2 days, respectively (Figure S26).
Figure S27: Sulfopin sulfamates show high metabolic stability: Compounds (Sulfopin, 4d, and 4g) were incubated
in liver microsomes and injected to LC/MS/MS at indicated time points. The peak intensities of the compounds were […]

Pin1 = biological target: T1, Pin1 (Homo sapiens, UniProt Q13526); assay: Intact protein MS labeling of Pin1; assay type: binding; details: 2 μM Pin1, 2 μM compound, pH 7.5, 1 h, 25 °C
T1 construct: The catalytic domain of Pin1 (2 μM) in […] and 75 mM NaCl (pH 7.5) was incubated; made in house
T1 sequence (Q13526 52-163 limits assumed): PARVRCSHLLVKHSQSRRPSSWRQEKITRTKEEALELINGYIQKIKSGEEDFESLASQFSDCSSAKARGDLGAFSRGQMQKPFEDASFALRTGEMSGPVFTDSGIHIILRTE
Experimental: Initially, we incubated these compounds (4a–4g; 2 μM) with Pin1 (2 μM; 50 mM Tris buffer; pH 7.5, 1 h; 25 °C) to check covalent labeling by intact protein MS (Figure 5B,C; Figure S23). Under these conditions, sulfopin labeled 59% as previously reported;[38] the sulfonate (4a) labeled 18%, whereas alkyl sulfamates (4b and 4c) labeled 16 and 56%, respectively. […] We have previously reported that replacing the tert-butyl group in sulfopin by a cyclohexyl increases the labeling along with intrinsic thiol reactivity. Compound 4g contains a cyclohexyl group instead of the tert-butyl and a phenyl sulfamate electrophile and was able to label >95% of Pin1 under these conditions.
Pin1 was expressed and purified as previously reported.[38] The catalytic domain of Pin1 (2 μM) in […] and 75 mM NaCl (pH 7.5) was incubated with 2 μM sulfopin sulfamate (4a–4g) for 1 h at 25 °C.
(§1) The reaction mixtures, at room temperature for various times, were injected into the LC/MS. For data analysis, the raw spectra were deconvoluted using a 20,000:40,000 Da (For Pin1, 10,000:30,000) window and 1 Da resolution. The labeling percentage for a compound was determined as the labeling of a specific compound (alone or together with other compounds) divided by the overall detected protein species.

[2] = DTNB thiol reactivity assay; assay type: physicochemical
Experimental: The compound 5,5′-dithio-bis(2-nitrobenzoic acid) (DTNB; 50 μM) was incubated with 200 μM tris(2-carboxyethyl)phosphine (TCEP) in 20 mM sodium phosphate buffer (pH 7.4) and 150 mM NaCl for 5 min at room temperature to obtain TNB^–2. […] UV absorbance was acquired every 15 min for 7 h. The assay was performed in a 384-well plate using a Tecan Spark 10 M plate reader. […] Compounds were measured in triplicate. The data were fitted to a second-order reaction equation such that the rate constant (K) is the slope of ln([A][B0]/[B][A0]), where [A0] and [B0] are the initial concentrations of the compound (200 μM) and TNB^–2 (100 μM), respectively, and [A] and [B] are the remaining concentrations as a function of time as deduced from spectrometric measurements. Linear regression using Prism was performed to fit the rate against the first 7 h of measurements.

[3] = GSH consumption assay (LC/MS); details: for reactivity towards GSH relative to chloroacetamide (1a): 5 mM GSH, 200 μM electrophile, pH 8, 14 °C; for covalent bond formation with GSH: assay conditions or temperatures up to 37 °C for 24 h
[4] = Glutamic acid reactivity of model compounds (LC/MS); details: pH 8, 37 °C; 4 days
BTK [5] = biological target: T2, BTK (Homo sapiens, UniProt Q06187); assay: In vitro kinase activity assay (Nanosyn); details: for BTK inhibition (in words): 0.5 nM BTK, 5 μM ATP
Target sequence in this assay (Q06187 whole entry, the tested form may be a part): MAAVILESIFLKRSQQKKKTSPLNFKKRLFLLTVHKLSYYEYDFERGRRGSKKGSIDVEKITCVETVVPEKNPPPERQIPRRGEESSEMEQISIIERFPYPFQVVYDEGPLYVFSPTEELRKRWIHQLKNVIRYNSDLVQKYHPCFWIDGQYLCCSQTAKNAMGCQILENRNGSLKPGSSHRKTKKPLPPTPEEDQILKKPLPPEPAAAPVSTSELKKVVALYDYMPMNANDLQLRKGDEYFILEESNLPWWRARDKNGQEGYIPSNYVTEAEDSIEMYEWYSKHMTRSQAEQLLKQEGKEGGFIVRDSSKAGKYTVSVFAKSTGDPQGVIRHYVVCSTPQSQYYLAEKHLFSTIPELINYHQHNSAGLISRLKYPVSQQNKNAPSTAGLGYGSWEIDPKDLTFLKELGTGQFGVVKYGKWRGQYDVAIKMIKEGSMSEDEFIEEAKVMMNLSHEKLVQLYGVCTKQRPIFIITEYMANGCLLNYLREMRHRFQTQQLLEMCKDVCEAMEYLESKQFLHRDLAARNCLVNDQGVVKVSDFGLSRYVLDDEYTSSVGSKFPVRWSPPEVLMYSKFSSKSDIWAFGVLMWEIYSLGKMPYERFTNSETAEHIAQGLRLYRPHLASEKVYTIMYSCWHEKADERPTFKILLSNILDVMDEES

BTK [6] = biological target: T2, BTK; assay: Intact protein mass spectrometry labeling of recombinant BTK; assay type: binding; parameters: BTK kinase domain was expressed and purified as previously reported; made in house; details: 2 μM BTK, 2 μM compound, pH 8, 25 °C
Experimental: BTK kinase domain was expressed and purified as previously reported.[66] Binding experiments were performed in Tris 20 mM (pH 8.0) and 50 mM NaCl at room temperature.
as §1
Target sequence in this assay (Q06187 402-655 limits assumed): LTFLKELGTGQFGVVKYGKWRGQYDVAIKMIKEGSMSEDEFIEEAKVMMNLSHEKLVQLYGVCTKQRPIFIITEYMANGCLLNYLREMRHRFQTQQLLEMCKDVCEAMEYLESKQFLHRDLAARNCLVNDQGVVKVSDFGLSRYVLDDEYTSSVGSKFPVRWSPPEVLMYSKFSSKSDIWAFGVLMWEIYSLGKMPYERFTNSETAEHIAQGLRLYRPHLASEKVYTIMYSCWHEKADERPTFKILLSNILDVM

BTK [7] = biological target: T2, BTK; assay: BTK activity (autophosphorylation) in Mino cells, Western blot; assay type: cell-based; parameters: endogenous in cells; host or cells: Mino cells
Experimental: To assess the cellular efficacy of these compounds, we followed the inhibition of BTK autophosphorylation in Mino cells. After 1 h of pre-incubation with the inhibitors and B-cell activation with an anti-IgM antibody, BTK autophosphorylation was followed by Western blot.
The cell pellets were subjected to immunoblotting, and Western blots were performed for p-BTK, BTK, and β-actin.
Cell pellets were washed with ice-cold PBS and lysed using RIPA buffer (Sigma, R0278). […] Samples containing 50 μg total protein were prepared with 4× LDS sample buffer (NuPAGE, Thermo Scientific, NP0007) and 20 mM DTT, which were then resolved on a 4–20% Bis–Tris gel (GeneScript SurePAGE, M00657). […] An EZ-ECL Kit (Biological Industries, 20-500-1000) was used to detect HRP activity.
Target sequence in this assay (Q06187 whole entry, the tested form may be a part): as the sequence (Q06187 whole entry, the tested form may be a part) above

Buffer stability assay = assay type: physicochemical

metabolic stability (in words) [1]: good metabolic stability | labeling of Pin1 (Pin1): > 95% | thiol reactivity compared to sulfopin [2]: slightly higher reactivity
Structure (SMILES): O=C(COS(=O)(=O)Nc1ccccc1)N(CC1CCCCC1)C1CCS(=O)(=O)C1 (stereo not drawn) [4g]

reactivity towards GSH relative to chloroacetamide (1a) [3]: an order of magnitude less reactivity | reaction with glutamic acid [4]: did not react
Structure (SMILES): O=C(COS(=O)(=O)NCc1ccccc1)NCc1ccccc1 [1e]

IC50 (BTK [5]): 100 nM
Structure (SMILES): Nc1ncnc2c1c(-c1ccc(Oc3ccccc3)cc1)nn2[C@@H]1CCCN(C(=O)COS(=O)(=O)Nc2ccccc2)C1 [3e]

reactivity towards GSH relative to chloroacetamide (1a) [3]: an order of magnitude less reactivity | reaction with glutamic acid [4]: did not react
Structure (SMILES): CNS(=O)(=O)OCC(=O)NCc1ccccc1 [1d]

labeling of Pin1 (Pin1): less than 30%
Structure (SMILES): Cc1ccc(NS(=O)(=O)OCC(=O)N(CC(C)(C)C)C2CCS(=O)(=O)C2)cc1 (stereo not drawn) [4f]

BTK inhibition (in words) (BTK [5]): potent BTK inhibition | labeling of BTK (BTK [6]; within 10 min): more than 95% | IC50 (BTK [7]; anti-IgM activation, Western blot normalized to β-actin): 6 nM
Structure (SMILES): CS(=O)(=O)OCC(=O)N1CCC[C@@H](n2nc(-c3ccc(Oc4ccccc4)cc3)c3c(N)ncnc32)C1 [3b]

covalent bond formation with GSH [3]: did not form a covalent bond with GSH
Structure (SMILES): CS(=O)(=O)CC(=O)NCc1ccccc1 [1i]

Structure (SMILES): CS(=O)(=O)CC(=O)N1CCC[C@@H](n2nc(-c3ccc(Oc4ccccc4)cc3)c3c(N)ncnc32)C1 [3f]
covalent reaction with BTK (BTK [6]): no labeling; also recorded: failed to react covalently with BTK

covalent bond formation with GSH [3]: did not form a covalent bond with GSH
Structure (SMILES): O=C(CS(=O)(=O)c1ccccc1)NCc1ccccc1 [1j]

hydrolysis (buffer stability, sulfopin analogues) (Buffer stability assay; 200 μM, PBS buffer pH 8, 37 °C for four days): 15% | hydrolysis (buffer stability, sulfopin analogues) (Buffer stability assay; PBS buffer pH 8, 37 °C, after 2 days): 15% | labeling of Pin1 (Pin1): 18%
Structure (SMILES): CC(C)(C)CN(C(=O)COS(C)(=O)=O)C1CCS(=O)(=O)C1 (stereo not drawn) [4a]

labeling of Pin1 (Pin1): 56% | thiol reactivity compared to sulfopin [2]: lower thiol reactivity than sulfopin
Structure (SMILES): CC(C)(C)CN(C(=O)COS(=O)(=O)NCc1ccccc1)C1CCS(=O)(=O)C1 (stereo not drawn) [4c]

BTK inhibition (in words) (BTK [5]): potent BTK inhibition | less potency in cellular pBTK inhibition (BTK [7]): 20 fold
Structure (SMILES): Nc1ncnc2c1c(-c1ccc(Oc3ccccc3)cc1)nn2[C@@H]1CCCN(C(=O)CCl)C1 [3a]

IC50 (BTK [5]): 500 nM
Structure (SMILES): Nc1ncnc2c1c(-c1ccc(Oc3ccccc3)cc1)nn2[C@@H]1CCCN(C(=O)CS(=O)(=O)c2ccccc2)C1 [3g]
covalent reaction with BTK (BTK [6]): no labeling; also recorded: failed to react covalently with BTK

labeling of Pin1 (Pin1): > 90% | thiol reactivity compared to sulfopin [2]: lower thiol reactivity than sulfopin
Structure (SMILES): CC(C)(C)CN(C(=O)COS(=O)(=O)Nc1ccc(Br)cc1)C1CCS(=O)(=O)C1 (stereo not drawn) [4e]

labeling of Pin1 (Pin1): 16%
Structure (SMILES): CNS(=O)(=O)OCC(=O)N(CC(C)(C)C)C1CCS(=O)(=O)C1 (stereo not drawn) [4b]
